From patent US9426996B2, “Use of benzoxaboroles as volatile antimicrobial agents on meats, plants, or plant parts” (AgroFresh Inc., priority 2013, dated 2016)

Tested on: Botrytis cinerea
Assay: in vitro inhibition assay for volatile antimicrobial compounds (12-well PDA plates)
Format: cell-based
Settings: 14 days at 4° C.; for lowest rate with 100% control of Botrytis cinerea: in vitro, volatile
Protocol: 12-Well (7 milliliter (mL volume per well) microtiter plates are used for the in vitro inhibition assay for volatile antimicrobial compounds. A 3-mL volume of full-strength Potato Dextrose Agar (PDA) is added to each well. After cooling, 1 microliter (μL) of 1×10^6 per mL Botrytis cinerea spore suspension is spot pipetted to the center of the agar. For the first experiment, inoculated plates are allowed to germinate for 5 days at 4° C. For the second experiment, plates are inoculated immediately prior to volatile fungicide treatment. Small Whatman #1 filter disks (Cat. No. 1001-0155) are placed, in duplicate, on the underside of a polyethylene PCR plate sealing film.
The acetone is permitted to evaporate for 5 minutes. The headspace around the Botrytis cinerea inoculum is then sealed inside the well by the film with the adhering disk containing the fungicide. Plates are inverted, placed over the treated disks and sealed to prevent any of the chemical from flaking from the disk and falling onto the inoculated agar. After 14 days of storage at 4° C., cultures are evaluated for percent growth relative to control. Regardless of whether the spores had germinated for 5 days, or if the treatment commenced soon after inoculation of the plates (˜15 minutes); there is 100% control of the fungal pathogen down to 0.005 mg.
A total of 14 antimicrobial compounds are tested using the in vitro inhibition assay described in Example 1. All 14 compounds are applied to the Whatman disks, in duplicate, in a dose dependent manner (0.31 to 0.0006 mg/disk). […] Other compounds, such as Compound C, Compound D, and Compound E conferred 100% control down to 0.023, 0.04, and 0.08 mg/disk, respectively. Results of nine compounds are summarized in Table 2, where the other five compounds show no detected activity in the ranges tested. […]

Row | Compound | Botrytis inhibition % (in vitro) (0.0006 mg per disk) | Botrytis inhibition % (in vitro) (0.001 mg per disk) | Botrytis inhibition % (in vitro) (0.0024 mg per disk) | Botrytis inhibition % (in vitro) (0.005 mg per disk) | Botrytis inhibition % (in vitro) (0.01 mg per disk) | Botrytis inhibition % (in vitro) (0.023 mg per disk) | Botrytis inhibition % (in vitro) (0.04 mg per disk) | Botrytis inhibition % (in vitro) (0.08 mg per disk) | Botrytis inhibition % (in vitro) (0.16 mg per disk) | Botrytis inhibition % (in vitro) (0.31 mg per disk) | lowest rate with 100% control of Botrytis cinerea
1 | COc1cccc2c1B(O)OC2 [K] | 0% | 0% | 0% | 0% | 0% | 0% | 0% | 5% | 29% | 48% | 
2 | FC(F)(F)c1ccc2c(c1)COB2c1ccsc1 [G] | 0% | 0% | 0% | 0% | 0% | 3% | 13% | 43% | 78% | 100% | 
3 | Fc1ccc2c(c1)COB2c1ccccc1 [Compound C] | 0% | 15% | 43% | 63% | 83% | 100% | 100% | 100% | 100% | 100% | 0.023 mg/disk
4 | OB1OCCc2ccccc21 [J] | 0% | 0% | 0% | 0% | 0% | 0% | 5% | 8% | 13% | 50% | 
5 | OB1OCc2cc(C(F)(F)F)ccc21 [H] | 0% | 0% | 0% | 0% | 3% | 18% | 38% | 55% | 80% | 85% | 
6 | FC(F)(F)c1ccc2c(c1)COB2c1ccccc1 [F] | 0% | 0% | 0% | 8% | 8% | 10% | 18% | 40% | 53% | 70% | 
7 | Fc1ccc2c(c1)COB2/C=C/c1ccccc1 [Compound E] | 13% | 13% | 28% | 38% | 69% | 79% | 79% | 100% | 100% | 100% | 0.08 mg/disk
8 | Fc1ccc2c(c1)COB2c1ccsc1 [Compound D] | 0% | 0% | 15% | 38% | 70% | 80% | 100% | 100% | 100% | 100% | 0.04 mg/disk
